Experimental data reported in patent US20080234291A1, “Mitratapide Oral Solution” (priority 2004, published 2008).
In brackets after ≈: the same amount, converted by molar mass.

Tests used:
[1] = solubility of mitratapide in different pharmaceutical solvents; type: physicochemical; details: about 22° C.
[2] = solubility of mitratapide in water; type: physicochemical
Protocol: Since mitratapide has a solubility of less than 0.5 μg/ml in water, which can be increased to 0.4 mg/ml at a pH of 1.2, the presence of a solubilizing agent is necessary for the preparation of aqueous solutions. Hydroxypropyl-β-cyclodextrin (HP-β-CD) is a suitable solubilizing agent with which mitratapide forms higher order water soluble complexes. In order to obtain an aqueous solution comprising mitratapide with a concentration of 5 mg/ml it is necessary to use HP-β-CD in an amount of 250 mg/ml and adjusting the pH to 4. Furthermore it is necessary to add an antimicrobial preservative to these aqueous HP-β-CD solutions to protect them against microbial spoilage during manufacture or use. The addition of benzoic acid, a well known antimicrobial preservative for acidic aqueous solutions having a pH ≦4.5, however caused a precipitation of mitratapide probably due to a competition between mitratapide and benzoic acid for inclusion into the HP-β-CD cavity. To compensate, the HP-β-CD concentration had to be increased from 250 mg/ml to 400 mg/ml to solubilize mitratapide at a concentration of 5 mg/ml. […]

CCC(C)n1ncn(-c2ccc(N3CCN(c4ccc(OCC5COC(CSc6nncn6C)(c6ccc(Cl)cc6)O5)cc4)CC3)cc2)c1=O (stereo not drawn) [mitratapide, (−)-[2S-[2α,4α(S*)]]-4-[4-[4-[4-[[2-(4-chlorophenyl)-2-[[(4-methyl-4H-1,2,4-triazol-3-yl)thio]methy]-1,3-dioxolan-4-yl]methoxy]pheny]-1-piperazinyl]phenyl]-2,4-dihydro-2-(1-methylpropyl)-3H-1,2,4-triazol-3-one]
solubility ([1]; caprylic/capric/linoleic acid triglyceride (Miglyol 818), oil or lipid, caprylidcapridlinoleic acid triglyceride (Miglyol 818 ®)): < 5000 µg/mL
solubility ([1]; oil or lipid, apricot Kernel oil PEG-6 complex (Labrafil 1944CS ®)): < 5000 µg/mL
solubility ([1]; oil or lipid, caprylic/capric acid triglyceride (Miglyol 812 ®)): < 5000 µg/mL
solubility ([1]; oil or lipid, caprylic/capric diester of propylene glycol): < 5000 µg/mL
solubility ([1]; oil or lipid, caprylic/capric/succinic acid triglyceride (Miglyol 829 ®)): < 5000 µg/mL
solubility ([1]; oil or lipid, caprylocaproyl-8 glyceride (Labrasol ®)): > 5000 µg/mL
solubility ([1]; oil or lipid, corn oil PEG-6 complex (Labrafil 2125CS ®)): < 5000 µg/mL
solubility ([1]; oil or lipid, sesame oil): < 50 µg/mL
solubility ([1]; organic solvent or mixture, diethylene glycol monoethyl ether (Transcutol ®)): > 5000 µg/mL
solubility ([1]; organic solvent or mixture, dimethyl isosorbide (2,5-di-O-methyl-1,4:3,6-dianhydro D-glucitol)): > 5000 µg/mL
solubility ([1]; propylene glycol monolaurate (Lauroglycol), oil or lipid, Dropylene glycol monolaurate (Lauroglycol ®)): > 5000 µg/mL
solubility ([2]; water at pH 1.2, pH 1.2, simulated gastric fluid, pH of 1.2, read-out: solubility in water at pH 1.2): 400 µg/mL (≈ 0.558 mM)
solubility ([2]; water, read-out: solubility in water): < 0.5 µg/mL
